Data as given in US20260013502A1, “METHOD FOR TERMINATING COVER CROP GROWTH” (SUMITOMO CHEMICAL COMPANY, LIMITED, priority 2022, published 2026).
Several values for one entry are separate records, joined by “and”; a condition that tells them apart may be missing. Equal values may be shown once. Where a name gives a salt, the structure may show the parent alone.

What was measured:
[1] = test system: edible radish (Daikon Radish); assay: Example 10: outdoor pot test, foliar application, termination of radish growth; assay type: in vivo, Raphanus sativus; conditions: outdoors, applied 24 days after seeding, epyrifenacil 20 g/ha, glyphosate-potassium salt 1,543 g/ha; for Growth termination date: death of terminal and lateral buds in all 7 pots; for Date at the beginning of the onset of effect: visual change in leaf color in all 7 pots, day relative to application
Protocol: (§1) A plastic pot was filled with soil, and edible radish (Daikon Radish) was seeded and grown outdoors. Twenty-four days after seeding, RoundupPowerMax was diluted with water, and then the radish was subjected to foliar application from above using an automatic sprayer at a spray volume of 200 L/ha to achieve an application rate of 1, 543 g/ha as glyphosate-potassium salt.
(§2) At the same time, the radish was similarly seeded in another plastic pot and grown. Twenty-four days after seeding, epyrifenacil emulsifiable concentrate (55 g/L) was diluted with water containing 18 (v/v) adjuvant Agri-Dex, and then the radish was subjected to foliar application from above using an automatic sprayer at a spray volume of 200 L/ha to achieve an application rate of 20 g/ha.
At the same time, the radish was similarly seeded in another plastic pot and grown. Twenty-four days after seeding, the entire plant was dug up and the dry matter weight (hereinafter referred to as untreated dry matter weight) was measured.
(§3) The radish applied with the herbicide was grown outdoors after application with the herbicide, and in case the growth was terminated, the entire plant was dug up at termination of the growth and the dry matter weight was measured. In this test, the growth was judged to be terminated when death of terminal and lateral buds was visually confirmed. The date at the beginning of the onset of effect, the growth termination date, and the dry matter weight at the time of growth termination are shown in Table 4. The onset of the effect was judged by visually observing the change in leaf color. Application with each herbicide was performed using seven pots. The date at the beginning of the onset of effect and the growth termination date in the table were dates on which the onset of effect and growth termination were confirmed in all seven pots, respectively. The incremental dry matter weight was the value calculated by the following formula (2).
(§4) Incremental dry matter weight=average dry matter weight at the time of growth termination−average untreated dry matter weight 24 days after seeding Formula (2): • Average dry matter weight at the time of growth termination: average value of dry matter weights of 7 pots at the time of growth termination • Average untreated dry matter weight 24 days after seeding: average value of untreated dry matter weights of 7 pots

[2] = test system: cereal rye (Secale cereale); assay: Example 1: outdoor boom-sprayer foliar application to overwintered cereal rye at heading stage; assay type: in vivo; conditions: 40 g/ha epyrifenacil, EC 55 g/L, 0.5% MSO + 1% ammonium sulfate, 189 L/ha
Protocol: At the heading stage of cereal rye (Secale cereale) seeded in the autumn and overwintered outdoors after corn cultivation, epyrifenacil emulsifiable concentrate (55 g/L) was diluted with water containing 0.5% (v/v) adjuvant MSO+1% (w/v) ammonium sulfate, and the cereal rye is subjected to foliar application using a boom sprayer at a spray volume of 189 L/ha to deliver 40 g/ha of epyrifenacil.

[3] = test system: cereal rye (Secale cereale); assay: Example 9: outdoor pot test, foliar application, termination of cereal rye growth; assay type: in vivo; conditions: glyphosate-potassium salt 1,543 g/ha; for Growth termination date / Date at the beginning of the onset of effect: cereal rye, outdoors, applied 24 days after seeding, epyrifenacil/saflufenacil 20 g/ha; for Growth termination date: death of terminal and lateral buds in all 7 pots; for Date at the beginning of the onset of effect: visual change in leaf color in all 7 pots, day relative to application; for Incremental dry matter weight: cereal rye above-ground parts, average dry matter weight at growth termination minus average untreated dry matter weight 24 days after seeding (7 pots), epyrifenacil 20 g/ha
Protocol: as §1, with “cereal rye (Secale cereale)” for “edible radish (Daikon Radish)”, “cereal rye” for “radish”, “1,543” for “1, 543”
as §2, with “cereal rye” for “radish”, “g/L) or saflufenacil suspension (341 g/L)” for “g/L)”, “1%” for “18”
At the same time, the cereal rye was similarly seeded in another plastic pot and grown. Twenty-four days after seeding, the above-ground parts were harvested and the dry matter weight (hereinafter referred to as untreated dry matter weight) was measured.
as §3, with “cereal rye” for “radish”, “above-ground parts were harvested” for “entire plant was dug up”, “3.” for “4.”, “(1).” for “(2).”
as §4, with “(1):” for “(2):”

barley (Hordeum vulgare) = assay: Example 3: outdoor boom-sprayer foliar application to overwintered barley at internode elongation stage; assay type: in vivo; conditions: 30 g/ha epyrifenacil, EC 55 g/L, 0.5% Agri-Dex + 1% ammonium sulfate, 250 L/ha
Protocol: At the internode elongation stage of barley (Hordeum vulgare) seeded in the autumn and overwintered outdoors in a corn cultivation trace, epyrifenacil emulsifiable concentrate (55 g/L) was diluted with water containing 0.5% (v/v) adjuvant Agri-Dex+1% (w/v) ammonium sulfate, and the barley is subjected to foliar application using a boom sprayer at a spray volume of 250 L/ha to deliver 30 g/ha of epyrifenacil.

radish (Tillage Radish) = assay: Example 2: outdoor boom-sprayer foliar application to overwintered radish at bolting stage; assay type: in vivo, Raphanus sativus; conditions: 20 g/ha epyrifenacil, EC 55 g/L, 0.5% Agri-Dex + 1% ammonium sulfate, 150 L/ha
Protocol: At the bolting stage of radish (Tillage Radish) seeded in the autumn and overwintered outdoors after soybean cultivation, epyrifenacil emulsifiable concentrate (55 g/L) was diluted with water containing 0.5% (v/v) adjuvant Agri-Dex+1% (w/v) ammonium sulfate, and the radish is subjected to foliar application using a boom sprayer at a spray volume of 150 L/ha to deliver 20 g/ha of epyrifenacil.

[4] = test system: cereal rye (Secale cereale); assay: Example 7: greenhouse pot test, foliar application, termination of cereal rye growth; assay type: in vivo; conditions: for Dry matter weight: cereal rye above-ground parts at growth termination, average of 3 pots
Protocol: as §1, with “cereal rye (Secale cereale)” for “edible radish (Daikon Radish)”, “in a greenhouse. Fifteen” for “outdoors. Twenty-four”, “cereal rye” for “radish”, “1,543” for “1, 543”
At the same time, the cereal rye was similarly seeded in another plastic pot and grown. Twenty-one days after seeding, epyrifenacil emulsifiable concentrate (55 g/L) or saflufenacil suspension (341 g/L) was diluted with water containing 1% (v/v) adjuvant Agri-Dex, and then the cereal rye was subjected to foliar application from above using an automatic sprayer at a spray volume of 200 L/ha to achieve an application rate of 25 g/ha.
(§5) After application with the herbicide, the cereal rye was grown in a greenhouse, and in case the growth was terminated, the above-ground parts were harvested at termination of the growth and the dry matter weight was measured. In this test, the growth was judged to be terminated when death of terminal and lateral buds was visually confirmed. The date at the beginning of the onset of effect, the growth termination date, and the dry matter weight at the time of growth termination are shown in Table 1. The onset of the effect was judged by visually observing the change in leaf color. Application with each herbicide was performed using three pots. The date at the beginning of the onset of effect and the growth termination date in the table were dates on which the onset of effect and growth termination were confirmed in all three pots, respectively. The dry matter weight was the average of the three pots.

[5] = test system: edible radish (Daikon Radish); assay: Example 8: greenhouse pot test, foliar application, termination of radish growth; assay type: in vivo, Raphanus sativus; conditions: for Dry matter weight: radish entire plant at growth termination, average of 3 pots; for Growth termination date / Date at the beginning of the onset of effect: epyrifenacil 25 g/ha applied 21 days after seeding, glyphosate-potassium salt 1,543 g/ha applied 15 days after seeding; for Date at the beginning of the onset of effect: visual change in leaf color in all 3 pots, day relative to application
Protocol: as §1, with “in a greenhouse. Fifteen” for “outdoors. Twenty-four”, “1,543” for “1, 543”
as §2, with “and grown. Twenty-one days after” for “and grown. Twenty-four days after”, “water containing 1% (v/v) adjuvant” for “water containing 18 (v/v) adjuvant”, “rate of 25 g/ha.” for “rate of 20 g/ha.”
as §5, with “radish” for “cereal rye”, “entire plant was dug up” for “above-ground parts were harvested”, “2.” for “1.”

[6] = epyrifenacil 25 g/ha, glyphosate-potassium salt 1,543 g/ha
[7] = epyrifenacil 25 g/ha, glyphosate-potassium salt 1,543 g/ha, listed as epyrifenacil
[8] = cereal rye, greenhouse, death of terminal and lateral buds in all 3 pots, epyrifenacil/saflufenacil 25 g/ha applied 21 days after seeding, glyphosate-potassium salt 1,543 g/ha applied 15 days after seeding
[9] = radish, greenhouse, death of terminal and lateral buds in all 3 pots
[10] = listed as glyphosate-potassium salt

SMILES | Growth termination date [1] | Date at the beginning of the onset of effect [1] | Death of the cereal rye observed [2] [days after application] | Growth termination date [3] | Date at the beginning of the onset of effect [3] | Death of the barley observed (barley (Hordeum vulgare)) [days after application] | Death of the radish observed (radish (Tillage Radish)) [days after application] | Dry matter weight [4, 6] | Dry matter weight [4, 7] | Growth termination date [4, 8] | Dry matter weight [5, 6] [kg/ha] | Dry matter weight [5, 7] | Growth termination date [5, 9] | Date at the beginning of the onset of effect ([5]; radish, greenhouse) | Incremental dry matter weight [3] [Kg/ha] | Incremental dry matter weight [3, 10] | Growth termination date [3, 10] [Days after application] | Growth termination date (days after application) ([4]; cereal rye, greenhouse, death of terminal and lateral buds in all 3 pots, epyrifenacil 25 g/ha, glyphosate-potassium salt 1,543 g/ha) | Date at the beginning of the onset of effect ([4]; cereal rye, greenhouse, visual change in leaf color in all 3 pots, day relative to application, epyrifenacil/saflufenacil 25 g/ha applied 21 days after seeding, glyphosate-potassium salt 1,543 g/ha applied 15 days after seeding) | Growth termination date (days after application) ([5]; radish, greenhouse, death of terminal and lateral buds in all 3 pots, epyrifenacil 25 g/ha, glyphosate-potassium salt 1,543 g/ha)
CCOC(=O)COc1ncccc1Oc1cc(-n2c(=O)cc(C(F)(F)F)n(C)c2=O)c(F)cc1Cl [Epyrifenacil, epyrifenacil] | 7 Days after application and 7 Days after Days after application | Day after | 4 | 7 Days after application and 7 Days Days after application | Day after | 4 | 3 | 1,118 kg/ha | biomass was greater | 24 Days Days after seeding | 905 | biomass was greater | 24 Days after Days after seeding | On the day of | – | – | – | – | – | –
O=C(O)CNCP(=O)(O)O [Glyphosate-potassium salt, glyphosate-potassium salt] | failed to terminate the growth | 10 Days Days after application | – | 21 Days Days after application | 7 Days after Days after application | – | – | 595 kg/ha | – | 24 Days Days after seeding | 360 | – | 24 Days after Days after seeding | 7 Days after Days after application | −42 | reduced biomass | 21 | seeding (9 days after application | 5 Days after Days after application | seeding (9 days after application
CC(C)N(C)S(=O)(=O)NC(=O)c1cc(-n2c(=O)cc(C(F)(F)F)n(C)c2=O)c(F)cc1Cl [Saflufenacil, saflufenacil] | – | – | – | failed to terminate the growth | Day after | – | – | – | – | failed to terminate the growth | – | – | – | – | – | – | – | – | – | –
